Results reported in patent US20150105252A1, “SUBSTITUTED PYRAZOLES AS HERBICIDES” (E I DU PONT DE NEMOURS AND COMPANY, priority 2013, published 2015).

Legend:
[1] = tested on: oilseed rape; test: Test D preemergence; type: in vivo, Brassica napus; details: scale 0 to 100
In short: (§1)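 Visual injury scored 0–100 (0 none, 100 complete control) against controls 14–21 days after treatment in a controlled growth environment. Chemicals were formulated in a non-phytotoxic solvent mixture containing surfactant, applied to silt loam soil preemergence or to 1- to 4-leaf plants postemergence.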

[2] = tested on: kochia; test: Test D preemergence; type: in vivo, Kochia scoparia; details: scale 0 to 100
In short: as §1

[3] = tested on: ryegrass, Italian; test: Test D postemergence; type: in vivo, Lolium multiflorum; details: scale 0 to 100
In short: as §1

[4] = tested on: corn; test: Test F preemergence; type: in vivo, Zea mays
In short: (§2)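 Percent-control style visual scores, from 0 (no effect) to 100 (complete control), were given relative to controls. Treatment timing: preemergence on silt loam plantings, or postemergence at 1- to 4-leaf stage. Evaluation came 14 to 21 days after spraying, greenhouse conditions.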

[5] = tested on: deadnettle; test: Test D preemergence; type: in vivo, Lamium amplexicaule; details: scale 0 to 100
In short: as §1

[6] = tested on: bromegrass, downy; test: Test D postemergence; type: in vivo, Bromus tectorum; details: scale 0 to 100
In short: as §1

[7] = tested on: chickweed; test: Test D postemergence; type: in vivo, Stellaria media; details: scale 0 to 100
In short: as §1

[8] = tested on: common waterhemp; test: Test F preemergence; type: in vivo, Amaranthus rudis
In short: as §2

[9] = tested on: mustard, wild; test: Test D preemergence; type: in vivo, Sinapis arvensis; details: scale 0 to 100
In short: as §1

[10] = tested on: radish, wild; test: Test D postemergence; type: in vivo, Raphanus raphanistrum; details: scale 0 to 100
In short: as §1

[11] = tested on: bluegrass; test: Test D postemergence; type: in vivo, Poa annua; details: scale 0 to 100
In short: as §1

[12] = tested on: pigweed, palmer; test: Test F preemergence; type: in vivo, Amaranthus palmeri
In short: as §2

[13] = tested on: field poppy; test: Test D postemergence; type: in vivo, Papaver rhoeas; details: scale 0 to 100
In short: as §1

[14] = tested on: lambsquarters; test: Test F preemergence; type: in vivo, Chenopodium album
In short: as §2

[15] = Preemergence, 62 g ai/ha, scale 0 to 100
[16] = Preemergence, 125 g ai/ha, scale 0 to 100
[17] = preemergence, 8 g ai/ha, scale 0 to 100, 100 is complete control

CCOc1cc(C(=O)NC(C)C)nn1Cc1ccnc(C(F)(F)F)c1 [Compound 188]
85: Plant response rating, Oilseed Rape ([1]; 62 g ai/ha) | Plant response rating, Common Waterhemp [8, 17]
70: Radish, Wild plant response rating ([10]; Postemergence, 31 g ai/ha) | Radish, Wild plant response rating ([10]; Postemergence, 125 g ai/ha) | Radish, Wild plant response rating ([10]; postemergence, 62 g ai/ha)
75: Chickweed plant response rating ([7]; Postemergence, 125 g ai/ha) | Field Poppy plant response rating ([13]; Postemergence, 125 g ai/ha)
20: Ryegrass, Italian plant response rating ([3]; Postemergence, 31 g ai/ha) | Ryegrass, Italian plant response rating ([3]; postemergence, 62 g ai/ha) | Plant response rating, Corn [4, 17] | Bromegrass, Downy plant response rating ([6]; Postemergence, 250 g ai/ha) | Bluegrass plant response rating ([11]; Postemergence, 31 g ai/ha) | Bluegrass plant response rating ([11]; postemergence, 62 g ai/ha)
95: Chickweed plant response rating ([7]; Postemergence, 250 g ai/ha) | Field Poppy plant response rating ([13]; Postemergence, 250 g ai/ha)
100: Plant response rating, Oilseed Rape ([1]; 125 g ai/ha) | Plant response rating, Oilseed Rape ([1]; 250 g ai/ha) | Plant response rating, Kochia ([2]; 62 g ai/ha) | Plant response rating, Kochia ([2]; 125 g ai/ha) | Plant response rating, Kochia ([2]; 250 g ai/ha) | Plant response rating, Deadnettle ([5]; 31 g ai/ha) | Plant response rating, Deadnettle ([5]; 62 g ai/ha) | Plant response rating, Deadnettle ([5]; 125 g ai/ha) | Plant response rating, Deadnettle ([5]; 250 g ai/ha) | Plant response rating, Common Waterhemp ([8]; Preemergence, 16 g ai/ha, scale 0 to 100) | Plant response rating, Common Waterhemp [8, 15] | Plant response rating, Common Waterhemp [8, 16] | Plant response rating, Mustard, Wild ([9]; 62 g ai/ha) | Plant response rating, Mustard, Wild ([9]; 125 g ai/ha) | Plant response rating, Mustard, Wild ([9]; 250 g ai/ha) | Plant response rating, Lambsquarters [14, 15] | Plant response rating, Lambsquarters [14, 16]
25: Ryegrass, Italian plant response rating ([3]; Postemergence, 125 g ai/ha)
35: Bluegrass plant response rating ([11]; Postemergence, 250 g ai/ha)
90: Radish, Wild plant response rating ([10]; Postemergence, 250 g ai/ha)
50: Plant response rating, Pigweed, Palmer [12, 16] | Plant response rating, Lambsquarters [14, 17]
0: Plant response rating, Pigweed, Palmer [12, 17]
65: Ryegrass, Italian plant response rating ([3]; Postemergence, 250 g ai/ha) | Plant response rating, Corn [4, 16] | Chickweed plant response rating ([7]; Postemergence, 31 g ai/ha) | Chickweed plant response rating ([7]; postemergence, 62 g ai/ha)
15: Plant response rating, Corn [4, 15] | Bromegrass, Downy plant response rating ([6]; Postemergence, 31 g ai/ha) | Bromegrass, Downy plant response rating ([6]; Postemergence, 125 g ai/ha) | Bromegrass, Downy plant response rating ([6]; postemergence, 62 g ai/ha)
30: Bluegrass plant response rating ([11]; Postemergence, 125 g ai/ha)
60: Field Poppy plant response rating ([13]; Postemergence, 31 g ai/ha) | Field Poppy plant response rating ([13]; postemergence, 62 g ai/ha)
